Activity calls are given as the source filed them.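 How the source made its calls: active means EC50 for STAT3 reporter activation at or below 10 µM; inactive means the rest.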 Bounds are passed on as bounds.

The test system of this experiment is U3A cells, IL-6 STAT3 luciferase reporter, luminescence. The experiment can be described thus: STAT3 activators in IL-6-stimulated reporter cells, dose response, counter-screen for STAT1 activator project, U3A cells, STAT1-deficient, luminescence, IL-6 stimulus (AID 1404).
What is called EC50 is the concentration needed to bring the measured effect to its halfway point. Regarding `CN1C(=O)/C(=C/C=C2\SCCN2C)SC1=S`, the EC50 was > 55.7 µM (inactive).

Take `O=C(/C=C/c1ccccc1)Nc1ccc(Cl)cn1`: the EC50 was > 55.7 µM (inactive). The result for `Fc1ccc2nc(Nc3nc4cc5c(cc4s3)OCCO5)sc2c1` reads > 55.7 µM (inactive); that for `Clc1ccc(-n2ncc3c(NCC4CCCO4)ncnc32)cc1` (configuration not stated), > 55.7 µM (inactive); that for `CCC(C)NC(=O)c1cc(-c2ccc(OC)cc2)on1` (configuration not stated), > 55.7 µM (inactive). As to `O=C(/C(C=Nc1ccc(Br)cc1)=C(/O)c1ccco1)C(F)(F)F`, the EC50 is > 55.7 µM (inactive).

As for `Cc1nc(-c2ccc(NC(=O)c3ccccc3C)cc2)cs1`, the EC50 is > 55.7 µM (inactive). The result for `CC(=O)Nc1ccccc1C(=O)OCc1cccc(F)c1` reads > 55.7 µM (inactive); that for `Cc1ccc(C(=O)N2CCc3ccccc32)o1`, > 55.7 µM (inactive); that for `CCOC(=O)/C(C#N)=C/c1cc(C)n(-c2ccccc2)c1C`, > 55.7 µM (inactive). With `CC(C)Oc1ccc2c(=O)c(-c3ccccc3)coc2c1` the figure was > 55.7 µM (inactive); with `CCCCOC(=O)Nc1nc2ccccc2s1`, > 55.7 µM (inactive). Take `COc1ccc(-c2cc3ncc(-c4ccccc4)c(N)n3n2)cc1`: the EC50 was > 55.7 µM (inactive).

For `COc1ccc(N/C=C\C(=O)c2ccc3c(c2)OCO3)cc1OC`, the EC50 is > 55.7 µM (inactive). Consider `COc1ccc(-c2csc(N3C(=O)CNC3=S)n2)cc1`, for which the EC50 was > 55.7 µM (inactive). For the compound `c1csc(C2=NNC(=NC3CCCCC3)SC2)c1`, the EC50 is > 55.7 µM (inactive). With `O=C(/C=C/c1cccc(F)c1)N1CCc2ccccc21` the figure was > 55.7 µM (inactive); with `CC(=O)c1cccc(NC(=S)NC(=O)c2cccc(C)c2)c1`, > 55.7 µM (inactive). The result for `CC(=O)COc1ccc2c(C)c(-c3ccccc3)c(=O)oc2c1` reads > 55.7 µM (inactive); that for `Cc1cc(C(=O)NCCC2=CCCCC2)c(C)o1`, > 55.7 µM (inactive). With `Nc1ccc2nn(-c3ccccc3)nc2c1`, the EC50 is > 55.7 µM (inactive). Regarding `Cc1ccc(C(=O)Nc2nc3c(s2)CCCC3)o1`, the EC50 was > 55.7 µM (inactive). With `c1cncc(-c2nc3cc4ccccc4cc3[nH]2)c1` the figure was > 55.7 µM (inactive). Regarding `Cc1ccc(C(=O)Nc2nc3ccccc3s2)s1`, the EC50 is > 55.7 µM (inactive).

On to `Cc1nc2ccc(-c3nc4ccccc4o3)cc2[nH]1`, for which the EC50 is > 55.7 µM (inactive).

With `COc1cccc(NC(=O)Nc2ccc(C(C)(C)C)cc2)c1`, the EC50 was > 55.7 µM (inactive). With `O=C(Nc1nccs1)c1ccc(-c2ccc([N+](=O)[O-])cc2)o1` the figure was > 55.7 µM (inactive). The result for `N#C/C(=C\c1ccc(N2CCOCC2)o1)c1nc2ccccc2[nH]1` reads > 55.7 µM (inactive). The result for `COc1ccc(Nc2oc(-c3cccs3)nc2C#N)cc1` reads > 55.7 µM (inactive).

On to `CCOCC(=O)Nc1nc2ccc(OCC)cc2s1`, for which the EC50 was > 55.7 µM (inactive). As for `O=C(c1ccccc1)c1ccc(N2CCCC2)cc1`, the EC50 was > 55.7 µM (inactive). With `Clc1ccc(-n2ncc3c(N4CCCC4)ncnc32)cc1` the figure was > 55.7 µM (inactive); with `CC(=O)c1cccc(N/C=C\C(=O)c2ccc(C)cc2)c1`, > 55.7 µM (inactive); with `CC(=O)NC(=S)Nc1sc2c(c1C#N)CCCCC2`, > 55.7 µM (inactive). The result for `CN(C)c1ccnc2sc(C(=O)c3ccccc3)c(N)c12` reads > 55.7 µM (inactive). With `CC(=O)Nc1cccc(-c2cnc3ccccc3n2)c1`, the EC50 was > 55.7 µM (inactive). The result for `O=C(/C(C=Nc1ccc(F)cc1)=C(/O)c1ccco1)C(F)(F)F` reads > 55.7 µM (inactive). On to `Nc1ccc2oc(-c3ccccc3Cl)nc2c1`, for which the EC50 is > 55.7 µM (inactive). Take `Cc1ccc2nc(NC(=O)CCn3cccc3)sc2c1`: the EC50 was > 55.7 µM (inactive). With `CCOC(=O)CSc1nc(-c2ccncc2)ccc1C#N` the figure was > 55.7 µM (inactive).

For `Fc1ccccc1CSc1nnc(-c2cccnc2)o1`, the EC50 is > 55.7 µM (inactive). With `CCOC(=O)c1ccc2nc(NC(C)=O)sc2c1` the figure was > 55.7 µM (inactive); with `COc1ccc2[nH]c3c(c2c1)CCn1c-3nc2ccccc2c1=O`, > 55.7 µM (inactive); with `CCOC(=O)c1sc(NC(=O)c2sccc2C)cc1C`, > 55.7 µM (inactive). With `O=C(NC(=S)Nc1ccc(F)cc1)c1ccc2c(c1)OCCO2` the figure was > 55.7 µM (inactive); with `O=C(/C=C/c1ccc(F)cc1)Nc1nc2ccccc2[nH]1`, > 55.7 µM (inactive). Turning to `Cc1ccc(/C=C/C(=O)Nc2ccccc2C(N)=O)cc1`, the EC50 is > 55.7 µM (inactive).

Turning to `Cc1nc2ccc3nc(NC(=O)c4ccco4)sc3c2s1`, the EC50 was > 55.7 µM (inactive). With `NC(=O)Cc1ccc2sc(-c3ccccc3)nc2c1` the figure was > 55.7 µM (inactive); with `CCN(CC)c1ccc2cc(C(=O)Nc3ccccn3)c(=O)oc2c1`, > 55.7 µM (inactive); with `Cc1ccc(-c2cc3nc(C)cc(NCc4ccco4)n3n2)cc1`, > 55.7 µM (inactive). With `COc1cc(NC(=O)c2csc3c2CCCC3)ncn1` the figure was > 55.7 µM (inactive); with `CC(=O)Nc1ccc(-c2csc(Nc3cccc(C)n3)n2)cc1`, > 55.7 µM (inactive); with `c1ccc(CNc2ccc3ccccc3n2)nc1`, > 55.7 µM (inactive). The result for `COc1ccc(/C=C/C(=O)Nc2ccccc2)cc1OC` reads > 55.7 µM (inactive); that for `COc1ccc2nc(Nc3ccc4c(c3)OCO4)sc2c1`, > 55.7 µM (inactive). Regarding `COc1cccc(N/C=C/C(=O)c2ccc(Cl)cc2)c1`, the EC50 is > 55.7 µM (inactive).

For `Nc1nc2ccc(-c3nc4ccccc4o3)cc2s1`, the EC50 was > 55.7 µM (inactive). The result for `COc1ccc2nc(Nc3nc(C)c(C(C)=O)s3)sc2c1` reads > 55.7 µM (inactive); that for `CCOC(=O)c1cnc2c(-c3ccccc3)cnn2c1N`, > 55.7 µM (inactive). The result for `Nc1ncc(-c2cc3ccccc3oc2=O)s1` reads > 55.7 µM (inactive); that for `Cc1occc1C(=O)Nc1ccc2c(c1)CCC2`, > 55.7 µM (inactive). The result for `COc1ccc(-c2nc3ccc([N+](=O)[O-])cc3[nH]2)cc1` reads > 55.7 µM (inactive); that for `O=C(Nc1ccc2c(c1)OCCO2)c1ccc(Br)s1`, > 55.7 µM (inactive); that for `C=CCNc1nc(-c2cc3ccccc3o2)cs1`, > 55.7 µM (inactive). As to `Nc1ccccc1Nc1cc(-c2ccccc2)[nH]n1`, the EC50 was > 55.7 µM (inactive). With `O=[N+]([O-])c1ccccc1OCCCn1cnc2ccccc21` the figure was > 55.7 µM (inactive); with `Cc1ccc(C(=O)/C=C/Nc2cccc([N+](=O)[O-])c2)o1`, > 55.7 µM (inactive). With `Cc1ccc(-c2cnc(-c3ccncc3)o2)cc1` the figure was > 55.7 µM (inactive); with `CN(C)c1ccc(C(=O)OCC(=O)c2cccs2)cc1`, > 55.7 µM (inactive); with `CCc1ccc(NC(=O)N2CCC(c3ccccc3)C2)cc1` (configuration not stated), > 55.7 µM (inactive). Consider `CC(C)=CC(=O)Nc1nc2ccc([N+](=O)[O-])cc2s1`, for which the EC50 was > 55.7 µM (inactive).

With `COc1ccc2c(c1)oc(=O)c1cc(OC)ccc12`, the EC50 was > 55.7 µM (inactive). The result for `C=CCNC(=O)c1cc(-c2ccc(Br)cc2)on1` reads > 55.7 µM (inactive). The result for `CN(C)c1nc(N)nc(CSc2nc3cc(Cl)ccc3o2)n1` reads > 55.7 µM (inactive); that for `CCc1ccc(Nc2ncc3c(n2)CC(C)CC3=O)cc1` (configuration not stated), > 55.7 µM (inactive); that for `O=C(/C=C/Nc1ccccc1F)c1ccc(Br)cc1`, > 55.7 µM (inactive). In the case of `O=C(Nc1cccc(Cl)c1)c1ccc2c(=O)n3c(nc2c1)CCCCC3`, the EC50 was > 55.7 µM (inactive). As to `O=C(/C=C/c1ccco1)Nc1ccccn1`, the EC50 is > 55.7 µM (inactive). With `Cc1nnc(SCC(=O)Nc2ccc(-c3nc4ccccc4s3)cc2)s1` the figure was > 55.7 µM (inactive). The result for `O=C(Nc1ccc(-c2nc3cccnc3s2)cc1)c1ccco1` reads > 55.7 µM (inactive); that for `CCNc1nc(-c2cc3ccccc3o2)cs1`, > 55.7 µM (inactive). The result for `Cc1cccc(Nc2n[nH]c(C)c2[N+](=O)[O-])c1` reads > 55.7 µM (inactive). Take `O=C(Cn1cnc2ccccc2c1=O)c1ccc(Cl)cc1`: the EC50 was > 55.7 µM (inactive). The result for `O=C(CCc1nnc(CCCc2ccccc2)o1)N1CCCCCC1` reads > 55.7 µM (inactive). The result for `Cc1nc(-c2ccc(NC(=O)c3ccccc3Br)cc2)cs1` reads > 55.7 µM (inactive); that for `O=C(NC(=S)Nc1ccccn1)c1ccc([N+](=O)[O-])cc1`, > 55.7 µM (inactive); that for `O=C(OCc1csc(-c2ccccc2)n1)c1cccs1`, > 55.7 µM (inactive).

Take `Cc1ncsc1C(=O)Nc1nc2c(s1)CCCC2`: the EC50 is > 55.7 µM (inactive). With `CCCOC(=O)c1ccc(-c2ccc(C=O)o2)cc1` the figure was > 55.7 µM (inactive); with `O=C(NCCC1=CCCCC1)c1ccc(F)cc1`, > 55.7 µM (inactive). The result for `CCCCCNc1nc(-c2ccccc2)cs1` reads > 55.7 µM (inactive).

With `Cc1ccc(-c2cc(N)n(-c3ccccc3)n2)cc1`, the EC50 is > 55.7 µM (inactive). For the compound `Cc1ccc(NC(=O)Nc2ccc3oc(C)nc3c2)cc1`, the EC50 is > 55.7 µM (inactive).

`O=C(/C=C/Nc1ccc(F)cc1)c1ccc(Br)cc1`: the EC50 was > 55.7 µM (inactive). `CC(C)(C)N=C1NN=C(c2cc3ccccc3o2)CS1`: the EC50 is > 55.7 µM (inactive).

For `CCOc1ccc2nc(N3CCOCC3)nc(C)c2c1`, the EC50 was > 55.7 µM (inactive).

Source of the values: PubChem BioAssay AID1404 (The Scripps Research Institute Molecular Screening Center, 2008).
